Test results: patent US20200190073A1, “SUBSTITUTED SUCCINIMIDE DERIVATIVES AS PESTICIDES” (BASF SE, priority 2017, published 2020)

Experiments:
Format in all cases: in vivo
[1] = tested on: Silverleaf Whitefly (Bemisia argentifolii); test: CE.4 Silverleaf whitefly, comparative test; details: 72 h, read-out: % mortality in comparison to untreated controls
Experimental: (§1) The tables show % mortality in comparison to untreated controls.
CE.4 Silverleaf Whitefly (Bemisia argentifolii)
The active compounds were formulated in 50:50 acetone:water (vol:vol) and 100 ppm Kinetica™ surfactant.
Selected cotton plants were grown to the cotyledon state (one plant per pot). The cotyledons were dipped into the test solution to provide complete coverage of the foliage and placed in a well-vented area to dry. Each pot with treated seedling was placed in a plastic cup and 10 to 12 whitefly adults (approximately 3-5 day old) were introduced. The insects were collected using an aspirator and a Tygon® tubing connected to a barrier pipette tip. The tip, containing the collected insects, was then gently inserted into the soil containing the treated plant, allowing insects to crawl out of the tip to reach the foliage for feeding. The cups were covered with a reusable screened lid. Test plants were maintained in the holding room at about 25° C. and about 20-40% relative humidity for 3 days avoiding direct exposure to the fluorescent light (24 hour photoperiod) to prevent trapping of heat inside the cup. Mortality was assessed 3 days after treatment of the plants.

[2] = tested on: Rice Green Leafhopper (Nephotettix virescens); test: CE.5 Rice green leafhopper, comparative test; details: 72 h, read-out: % mortality in comparison to untreated controls
[3] = tested on: Diamond back moth (Plutella xylostella); test: CE.6 Diamond back moth, contact activity, comparative test; details: read-out: % mortality in comparison to untreated controls
Experimental: as §1
CE.6 Diamond Back Moth (Plutella xylostella)
Ten third-instar larvae are sprayed with 1 ml test solution and introduce to untreated leaves held petri dished lined with moist filter paper. Mortality is recorded 24, 72, and 120 hours after treatment.

[4] = tested on: Southern Armyworm (Spodoptera eridania), 2nd Instar Larvae; test: CE.7 Southern armyworm, 2nd instar larvae, comparative test; details: foliar, 96 h, leaf dip, at 4 days, read-out: % mortality in comparison to untreated controls
Experimental: as §1
CE.7 Southern Armyworm (Spodoptera eridania), 2nd Instar Larvae
The active compounds were formulated in 50:50 acetone:water (vol) and 100 ppm Kinetica™ surfactant.
A pair of first true leaves of Sieva lima bean was dipped into the test solution and allowed to dry. The leaves were then placed in a plastic perforated zip enclosure bag and ten 2nd instar larvae were added. At 4 days, observations were made of mortality and reduced feeding.

## O=C(NC1CCN(CC(F)(F)F)C1=O)c1ccc(C2=NOC(c3cc(Cl)c(F)c(Cl)c3)(C(F)(F)F)C2)c2c1CCC2 (stereo not shown) [Tab. 128, A-9 of WO 2015128358, reference compound]
[1]
  mortality at 10 ppm: 50%
[2]
  mortality at 3 ppm: 0%
[3]
  mortality at 0.1 ppm: 0%
[4]
  mortality at 3 ppm: 0%
